# Measured values reported in US9809623B2, “α4β7 peptide monomer and dimer antagonists” (Protagonist Therapeutics, Inc., priority 2014, dated 2017).
# Like-named read-outs stand apart in the source and are kept apart here. Numbered stars: 1 amine (or outer) side, 2 acyl side, 3 side chain; on linkers, the order of the positions; unused ones are H or OH. Bridge positions count the residues as written; N and C are the ends. Square brackets hold non-standard residues; d marks the D form. Peptide text beside a SMILES is read from it. I, II: the chains in the order shown. Phe(4-COOH) = N[C@@H](Cc1ccc(C(=O)O)cc1)C(=O)O; Phe(4-tBu) = CC(C)(C)c1ccc(C[C@H](N)C(=O)O)cc1; 1Nal = N[C@@H](Cc1cccc2ccccc12)C(=O)O; Diglycolyl = O=C(COCC(=O)[*:2])[*:1]; NMeR = CN[C@@H](CCCNC(=N)N)C(=O)O; β3hE = N[C@@H](CCC(=O)O)CC(=O)O; NMeK = CN[C@@H](CCCCN)C(=O)O; Pen = CC(C)(S)[C@H](N)C(=O)O
# Assays:
# α4β7 [1] = biological target: α4β7 (Homo sapiens, UniProt P13612+P26010); assay: PBMC Memory T Cell Adhesion Assay, adhesion to MAdCAM-1; type: cell-based
# Method in brief: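 Fresh human CD4+/CD45RO+ memory T cells in binding medium with 1 mM MnCl2 were preincubated with compound for 1.5 h at 37° C. on plates coated with Fc-captured MAdCAM-1 (400 ng/well). Adherent cells were read by fluorescence (Ex 485/Em 530). IC50 came from four-parameter nonlinear regression of RFU versus log concentration.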
# α4β7 [2] = biological target: T1, α4β7 (Mus musculus, UniProt P26011+Q00651); assay: α4β7 Cell Adhesion Assay (Mouse), TK1 cells; type: cell-based
# T1 construct: host or cells: TK1 mouse T cells
# Method in brief: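 Mouse TK1 cells in DMEM with 0.1% BSA, 10 mM HEPES pH 7 and 1 mM MnCl2 were allowed to adhere for 30-45 min at 37 °C to plates coated with recombinant human MAdCAM-1 Fc (200 ng/well) in the presence of serially diluted peptides. Adherent cells were quantified by MTT absorbance at 570 nm, with no-cell background subtracted for dose response.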
# [3] = Table 3-B, range classes, read-out: PBMC IC50
# [4] = Table 3-B, Potency (α4β7), range classes, read-out: α4β7 cell(MU) IC50
# [5] = Table 4-B, read-out: Cell Adhesion PBMC IC50
# [6] = Table 4-B, read-out: Cell Adhesion α4β7 Mouse IC50
# T1 sequence (Q00651 34-1039 limits assumed): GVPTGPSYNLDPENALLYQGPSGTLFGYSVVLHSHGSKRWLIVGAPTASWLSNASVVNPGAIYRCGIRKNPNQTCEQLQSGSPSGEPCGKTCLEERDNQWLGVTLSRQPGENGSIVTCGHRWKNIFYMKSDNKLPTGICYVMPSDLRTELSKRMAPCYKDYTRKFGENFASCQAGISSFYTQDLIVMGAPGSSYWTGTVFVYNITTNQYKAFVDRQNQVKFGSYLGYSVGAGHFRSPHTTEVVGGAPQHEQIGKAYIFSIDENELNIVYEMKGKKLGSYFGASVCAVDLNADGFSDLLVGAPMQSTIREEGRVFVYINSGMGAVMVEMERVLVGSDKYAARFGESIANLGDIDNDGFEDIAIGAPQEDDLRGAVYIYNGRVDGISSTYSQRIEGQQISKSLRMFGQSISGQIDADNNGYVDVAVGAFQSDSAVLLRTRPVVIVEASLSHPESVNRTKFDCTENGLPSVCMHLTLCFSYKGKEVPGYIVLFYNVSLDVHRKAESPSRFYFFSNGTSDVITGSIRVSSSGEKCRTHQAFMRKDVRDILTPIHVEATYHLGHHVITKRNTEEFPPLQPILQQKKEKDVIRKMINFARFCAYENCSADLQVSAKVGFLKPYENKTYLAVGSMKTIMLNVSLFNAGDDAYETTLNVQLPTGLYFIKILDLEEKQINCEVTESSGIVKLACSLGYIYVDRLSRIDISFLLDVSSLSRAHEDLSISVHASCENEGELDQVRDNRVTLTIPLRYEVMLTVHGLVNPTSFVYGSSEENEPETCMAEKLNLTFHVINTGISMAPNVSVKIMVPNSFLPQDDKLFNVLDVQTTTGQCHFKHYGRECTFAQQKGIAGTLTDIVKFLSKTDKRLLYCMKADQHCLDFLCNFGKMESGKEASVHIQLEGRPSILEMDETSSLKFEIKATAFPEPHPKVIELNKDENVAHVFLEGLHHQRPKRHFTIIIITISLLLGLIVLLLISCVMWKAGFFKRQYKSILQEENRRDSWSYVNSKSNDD
# T1 sequence (P26011 20-806): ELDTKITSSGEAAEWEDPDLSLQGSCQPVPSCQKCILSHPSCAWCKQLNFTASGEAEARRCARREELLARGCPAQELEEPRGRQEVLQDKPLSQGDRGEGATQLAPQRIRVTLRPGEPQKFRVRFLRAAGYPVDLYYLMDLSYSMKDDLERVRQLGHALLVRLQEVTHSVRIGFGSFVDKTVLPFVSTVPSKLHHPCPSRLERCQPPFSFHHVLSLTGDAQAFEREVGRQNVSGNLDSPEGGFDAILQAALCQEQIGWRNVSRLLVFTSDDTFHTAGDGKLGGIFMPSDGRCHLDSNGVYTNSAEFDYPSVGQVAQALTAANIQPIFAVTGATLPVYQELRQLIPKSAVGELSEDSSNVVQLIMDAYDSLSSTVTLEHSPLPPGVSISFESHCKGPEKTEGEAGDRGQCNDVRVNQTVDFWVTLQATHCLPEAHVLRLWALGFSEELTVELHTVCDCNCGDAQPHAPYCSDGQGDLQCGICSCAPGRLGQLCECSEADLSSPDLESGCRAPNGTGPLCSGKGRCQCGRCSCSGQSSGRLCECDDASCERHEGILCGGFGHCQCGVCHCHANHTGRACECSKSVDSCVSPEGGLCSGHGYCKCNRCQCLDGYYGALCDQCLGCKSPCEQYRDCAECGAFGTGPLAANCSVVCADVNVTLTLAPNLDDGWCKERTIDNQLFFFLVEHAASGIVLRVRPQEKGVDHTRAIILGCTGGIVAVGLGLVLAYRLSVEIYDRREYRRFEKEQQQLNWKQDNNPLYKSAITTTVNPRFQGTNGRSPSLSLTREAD
# Sequence of α4β7 (Homo sapiens, UniProt P13612+P26010) (P13612 34-1032): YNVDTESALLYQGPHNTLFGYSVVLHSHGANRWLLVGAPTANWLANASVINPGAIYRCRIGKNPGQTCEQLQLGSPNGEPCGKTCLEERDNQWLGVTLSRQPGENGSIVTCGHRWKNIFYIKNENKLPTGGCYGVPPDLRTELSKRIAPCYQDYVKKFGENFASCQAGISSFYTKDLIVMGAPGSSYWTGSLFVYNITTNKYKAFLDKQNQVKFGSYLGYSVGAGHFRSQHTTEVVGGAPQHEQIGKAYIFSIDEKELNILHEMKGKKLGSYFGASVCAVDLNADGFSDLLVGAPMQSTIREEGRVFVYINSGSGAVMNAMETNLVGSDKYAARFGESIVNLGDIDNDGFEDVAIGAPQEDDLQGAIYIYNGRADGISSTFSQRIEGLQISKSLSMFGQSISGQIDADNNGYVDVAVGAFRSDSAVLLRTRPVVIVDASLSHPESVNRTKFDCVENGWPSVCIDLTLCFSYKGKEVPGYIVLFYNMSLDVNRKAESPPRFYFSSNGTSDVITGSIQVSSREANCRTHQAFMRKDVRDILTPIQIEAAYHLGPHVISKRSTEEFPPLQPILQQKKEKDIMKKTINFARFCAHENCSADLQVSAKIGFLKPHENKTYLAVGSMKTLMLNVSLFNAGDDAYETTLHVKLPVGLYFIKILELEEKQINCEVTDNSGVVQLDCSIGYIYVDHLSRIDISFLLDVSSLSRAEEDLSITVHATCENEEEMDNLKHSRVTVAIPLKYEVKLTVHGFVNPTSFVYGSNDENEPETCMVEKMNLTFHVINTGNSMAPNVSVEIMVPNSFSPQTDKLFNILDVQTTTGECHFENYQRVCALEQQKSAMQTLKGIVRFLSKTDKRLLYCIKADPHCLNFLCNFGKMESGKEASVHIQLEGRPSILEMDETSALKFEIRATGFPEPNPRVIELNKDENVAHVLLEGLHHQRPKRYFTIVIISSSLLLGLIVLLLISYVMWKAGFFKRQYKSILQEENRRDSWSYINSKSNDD
# Sequence of α4β7 (Homo sapiens, UniProt P13612+P26010) (P26010 20-798): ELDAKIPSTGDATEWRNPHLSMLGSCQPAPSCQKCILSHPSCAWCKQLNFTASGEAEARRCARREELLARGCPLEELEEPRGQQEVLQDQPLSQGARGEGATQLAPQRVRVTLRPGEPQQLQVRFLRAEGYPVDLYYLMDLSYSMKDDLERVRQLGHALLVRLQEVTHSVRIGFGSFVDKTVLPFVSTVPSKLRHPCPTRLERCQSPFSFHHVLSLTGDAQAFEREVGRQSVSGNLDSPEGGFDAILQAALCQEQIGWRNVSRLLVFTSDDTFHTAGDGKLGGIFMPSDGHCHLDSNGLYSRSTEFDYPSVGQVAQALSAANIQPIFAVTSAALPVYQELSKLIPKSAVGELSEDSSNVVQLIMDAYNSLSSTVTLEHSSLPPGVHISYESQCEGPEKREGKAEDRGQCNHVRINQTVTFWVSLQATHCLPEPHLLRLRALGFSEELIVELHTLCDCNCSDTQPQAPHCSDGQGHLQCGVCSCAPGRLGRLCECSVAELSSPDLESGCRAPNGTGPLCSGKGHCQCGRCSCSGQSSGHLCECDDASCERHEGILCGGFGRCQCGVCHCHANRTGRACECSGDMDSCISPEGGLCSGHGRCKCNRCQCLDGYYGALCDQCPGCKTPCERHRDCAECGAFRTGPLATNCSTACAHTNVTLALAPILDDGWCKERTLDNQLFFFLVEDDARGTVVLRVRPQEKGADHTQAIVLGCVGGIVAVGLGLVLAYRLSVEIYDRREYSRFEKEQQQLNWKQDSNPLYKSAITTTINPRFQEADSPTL
SMILES,IC50 (α4β7 [1]; [3]) [nM],IC50 (α4β7 [2]; [4]) [nM],IC50 (α4β7 [1]; [5]) [nM],IC50 (α4β7 [2]; [6]) [nM]
"CC(=O)N[C@@H]1C(=O)N(C)[C@@H](CCCNC(=N)N)C(=O)N[C@@H](CO)C(=O)N[C@@H](CC(=O)O)C(=O)N[C@@H]([C@@H](C)O)C(=O)N[C@@H](CC(C)C)C(=O)N[C@H](C(=O)N[C@@H](Cc2ccc(C(C)(C)C)cc2)C(=O)N[C@@H](CCC(=O)O)CC(=O)N(C)[C@@H](CCCCNC(=O)COCC(=O)NCCCC[C@@H](C(N)=O)N(C)C(=O)C[C@H](CCC(=O)O)NC(=O)[C@H](Cc2ccc(C(C)(C)C)cc2)NC(=O)[C@H]2NC(=O)[C@H](CC(C)C)NC(=O)[C@H]([C@@H](C)O)NC(=O)[C@H](CC(=O)O)NC(=O)[C@H](CO)NC(=O)[C@H](CCCNC(=N)N)N(C)C(=O)[C@@H](NC(C)=O)C(C)(C)SSC2(C)C)C(N)=O)C(C)(C)SSC1(C)C [compound 149] (I: Ac-[Pen][NMeR]SDTL[Pen][Phe(4-tBu)][β3hE][NMeK]-NH2 / II: Ac-[Pen][NMeR]SDTL[Pen][Phe(4-tBu)][β3hE][NMeK]-NH2; disulfide I:1-I:7, II:1-II:7; linker I:10-II:10 via Diglycolyl)",< 10,< 10,,
"CC(=O)N[C@@H]1C(=O)N(C)[C@@H](CCCNC(=N)N)C(=O)N[C@@H](CO)C(=O)N[C@@H](CC(=O)O)C(=O)N[C@@H]([C@@H](C)O)C(=O)N[C@@H](CC(C)C)C(=O)N[C@H](C(=O)N[C@@H](Cc2ccc(C(C)(C)C)cc2)C(=O)N[C@@H](CCC(=O)O)CC(=O)N[C@H](CCCCNC(=O)COCC(=O)NCCCC[C@@H](NC(=O)C[C@H](CCC(=O)O)NC(=O)[C@H](Cc2ccc(C(C)(C)C)cc2)NC(=O)[C@H]2NC(=O)[C@H](CC(C)C)NC(=O)[C@H]([C@@H](C)O)NC(=O)[C@H](CC(=O)O)NC(=O)[C@H](CO)NC(=O)[C@H](CCCNC(=N)N)N(C)C(=O)[C@@H](NC(C)=O)C(C)(C)SSC2(C)C)C(N)=O)C(N)=O)C(C)(C)SSC1(C)C [compound 132] (I: Ac-[Pen][NMeR]SDTL[Pen][Phe(4-tBu)][β3hE][dK]-NH2 / II: Ac-[Pen][NMeR]SDTL[Pen][Phe(4-tBu)][β3hE][dK]-NH2; disulfide I:1-I:7, II:1-II:7; linker I:10-II:10 via Diglycolyl)",< 10,< 10,,
"CC(=O)N[C@@H]1C(=O)N(C)[C@@H](CCCNC(=N)N)C(=O)N[C@@H](CO)C(=O)N[C@@H](CC(=O)O)C(=O)N[C@@H]([C@@H](C)O)C(=O)N[C@@H](CC(C)C)C(=O)N[C@H](C(=O)N[C@@H](Cc2c[nH]c3ccccc23)C(=O)N[C@H](CCCCNC(=O)COCC(=O)NCCCC[C@@H](NC(=O)[C@H](Cc2c[nH]c3ccccc23)NC(=O)[C@H]2NC(=O)[C@H](CC(C)C)NC(=O)[C@H]([C@@H](C)O)NC(=O)[C@H](CC(=O)O)NC(=O)[C@H](CO)NC(=O)[C@H](CCCNC(=N)N)N(C)C(=O)[C@@H](NC(C)=O)C(C)(C)SSC2(C)C)C(N)=O)C(N)=O)C(C)(C)SSC1(C)C [compound 209, (Ac-Pen-N-Me-R-S-D-T-L-Pen-W-k-NH2)2-DIG] (I: Ac-[Pen][NMeR]SDTL[Pen]W[dK]-NH2 / II: Ac-[Pen][NMeR]SDTL[Pen]W[dK]-NH2; disulfide I:1-I:7, II:1-II:7 (inferred); linker I:9-II:9 via Diglycolyl (inferred))",,,260,51
"CC(=O)N[C@@H]1C(=O)N(C)[C@@H](CCCNC(=N)N)C(=O)N[C@@H](CO)C(=O)N[C@@H](CC(=O)O)C(=O)N[C@@H]([C@@H](C)O)C(=O)N[C@@H](CC(C)C)C(=O)N[C@H](C(=O)N[C@@H](Cc2ccc(C(C)(C)C)cc2)C(=O)N[C@@H](CCC(=O)O)CC(=O)N[C@H](CCCCNC(=O)COCC(=O)NCCCC[C@@H](NC(=O)C[C@H](CCC(=O)O)NC(=O)[C@H](Cc2ccc(C(C)(C)C)cc2)NC(=O)[C@H]2NC(=O)[C@H](CC(C)C)NC(=O)[C@H]([C@@H](C)O)NC(=O)[C@H](CC(=O)O)NC(=O)[C@H](CO)NC(=O)[C@H](CCCNC(=N)N)N(C)C(=O)[C@@H](NC(C)=O)C(C)(C)SSC2(C)C)C(N)=O)C(N)=O)C(C)(C)SSC1(C)C [compound 218, [Ac-Pen-(N-Me-Arg)-Ser-Asp-Thr-Leu-Pen-Phe(4-tBu)-(β-homoGlu)-(D-Lys)-NH2]2-DIG] (I: Ac-[Pen][NMeR]SDTL[Pen][Phe(4-tBu)][β3hE][dK]-NH2 / II: Ac-[Pen][NMeR]SDTL[Pen][Phe(4-tBu)][β3hE][dK]-NH2; disulfide I:1-I:7, II:1-II:7; linker I:10-II:10 via Diglycolyl)",,,2,0.5
"CC(=O)N[C@@H]1C(=O)N(C)[C@@H](CCCNC(=N)N)C(=O)N[C@@H](CO)C(=O)N[C@@H](CC(=O)O)C(=O)N[C@@H]([C@@H](C)O)C(=O)N[C@@H](CC(C)C)C(=O)N[C@H](C(=O)N[C@@H](Cc2c[nH]c3ccccc23)C(=O)N[C@@H](CCC(=O)O)C(=O)N(C)[C@@H](CCCCNC(=O)COCC(=O)NCCCC[C@@H](C(N)=O)N(C)C(=O)[C@H](CCC(=O)O)NC(=O)[C@H](Cc2c[nH]c3ccccc23)NC(=O)[C@H]2NC(=O)[C@H](CC(C)C)NC(=O)[C@H]([C@@H](C)O)NC(=O)[C@H](CC(=O)O)NC(=O)[C@H](CO)NC(=O)[C@H](CCCNC(=N)N)N(C)C(=O)[C@@H](NC(C)=O)C(C)(C)SSC2(C)C)C(N)=O)C(C)(C)SSC1(C)C [compound 215, [Ac-Pen-(N-Me-Arg)-Ser-Asp-Thr-Leu-Pen-Trp-Glu-(N-Me-Lys)-NH2]2-DIG] (I: Ac-[Pen][NMeR]SDTL[Pen]WE[NMeK]-NH2 / II: Ac-[Pen][NMeR]SDTL[Pen]WE[NMeK]-NH2; disulfide I:1-I:7, II:1-II:7 (inferred); linker I:10-II:10 via Diglycolyl (inferred))",,,16.5,0.9
"CC(=O)N[C@@H]1C(=O)N(C)[C@@H](CCCNC(=N)N)C(=O)N[C@@H](CO)C(=O)N[C@@H](CC(=O)O)C(=O)N[C@@H]([C@@H](C)O)C(=O)N[C@@H](CC(C)C)C(=O)N[C@H](C(=O)N[C@@H](Cc2ccc(C(=O)O)cc2)C(=O)N[C@@H](CCC(=O)O)C(=O)N(C)[C@@H](CCCCNC(=O)COCC(=O)NCCCC[C@@H](C(N)=O)N(C)C(=O)[C@H](CCC(=O)O)NC(=O)[C@H](Cc2ccc(C(=O)O)cc2)NC(=O)[C@H]2NC(=O)[C@H](CC(C)C)NC(=O)[C@H]([C@@H](C)O)NC(=O)[C@H](CC(=O)O)NC(=O)[C@H](CO)NC(=O)[C@H](CCCNC(=N)N)N(C)C(=O)[C@@H](NC(C)=O)C(C)(C)SSC2(C)C)C(N)=O)C(C)(C)SSC1(C)C [compound 147] (I: Ac-[Pen][NMeR]SDTL[Pen][Phe(4-COOH)]E[NMeK]-NH2 / II: Ac-[Pen][NMeR]SDTL[Pen][Phe(4-COOH)]E[NMeK]-NH2; disulfide I:1-I:7, II:1-II:7; linker I:10-II:10 via Diglycolyl)",< 10,< 10,,
"CC(=O)N[C@@H]1C(=O)N(C)[C@@H](CCCNC(=N)N)C(=O)N[C@@H](CO)C(=O)N[C@@H](CC(=O)O)C(=O)N[C@@H]([C@@H](C)O)C(=O)N[C@@H](CC(C)C)C(=O)N[C@H](C(=O)N[C@@H](Cc2ccc(C(=O)O)cc2)C(=O)N[C@@H](CCC(=O)O)CC(=O)N[C@H](CCCCNC(=O)COCC(=O)NCCCC[C@@H](NC(=O)C[C@H](CCC(=O)O)NC(=O)[C@H](Cc2ccc(C(=O)O)cc2)NC(=O)[C@H]2NC(=O)[C@H](CC(C)C)NC(=O)[C@H]([C@@H](C)O)NC(=O)[C@H](CC(=O)O)NC(=O)[C@H](CO)NC(=O)[C@H](CCCNC(=N)N)N(C)C(=O)[C@@H](NC(C)=O)C(C)(C)SSC2(C)C)C(N)=O)C(N)=O)C(C)(C)SSC1(C)C [compound 130] (I: Ac-[Pen][NMeR]SDTL[Pen][Phe(4-COOH)][β3hE][dK]-NH2 / II: Ac-[Pen][NMeR]SDTL[Pen][Phe(4-COOH)][β3hE][dK]-NH2; disulfide I:1-I:7, II:1-II:7; linker I:10-II:10 via Diglycolyl)",< 10,,,
"CC(=O)N[C@@H]1C(=O)N(C)[C@@H](CCCNC(=N)N)C(=O)N[C@@H](CO)C(=O)N[C@@H](CC(=O)O)C(=O)N[C@@H]([C@@H](C)O)C(=O)N[C@@H](CC(C)C)C(=O)N[C@H](C(=O)N[C@@H](Cc2ccc(C(=O)O)cc2)C(=O)N[C@@H](CCC(=O)O)C(=O)N[C@H](CCCCNC(=O)COCC(=O)NCCCC[C@@H](NC(=O)[C@H](CCC(=O)O)NC(=O)[C@H](Cc2ccc(C(=O)O)cc2)NC(=O)[C@H]2NC(=O)[C@H](CC(C)C)NC(=O)[C@H]([C@@H](C)O)NC(=O)[C@H](CC(=O)O)NC(=O)[C@H](CO)NC(=O)[C@H](CCCNC(=N)N)N(C)C(=O)[C@@H](NC(C)=O)C(C)(C)SSC2(C)C)C(N)=O)C(N)=O)C(C)(C)SSC1(C)C [compound 129] (I: Ac-[Pen][NMeR]SDTL[Pen][Phe(4-COOH)]E[dK]-NH2 / II: Ac-[Pen][NMeR]SDTL[Pen][Phe(4-COOH)]E[dK]-NH2; disulfide I:1-I:7, II:1-II:7; linker I:10-II:10 via Diglycolyl)",< 10,,,
"CC(=O)N[C@@H]1C(=O)N(C)[C@@H](CCCNC(=N)N)C(=O)N[C@@H](CO)C(=O)N[C@@H](CC(=O)O)C(=O)N[C@@H]([C@@H](C)O)C(=O)N[C@@H](CC(C)C)C(=O)N[C@H](C(=O)N[C@@H](Cc2cccc3ccccc23)C(=O)N[C@@H](CCC(=O)O)CC(=O)N(C)[C@@H](CCCCNC(=O)COCC(=O)NCCCC[C@@H](C(N)=O)N(C)C(=O)C[C@H](CCC(=O)O)NC(=O)[C@H](Cc2cccc3ccccc23)NC(=O)[C@H]2NC(=O)[C@H](CC(C)C)NC(=O)[C@H]([C@@H](C)O)NC(=O)[C@H](CC(=O)O)NC(=O)[C@H](CO)NC(=O)[C@H](CCCNC(=N)N)N(C)C(=O)[C@@H](NC(C)=O)C(C)(C)SSC2(C)C)C(N)=O)C(C)(C)SSC1(C)C [compound 142] (I: Ac-[Pen][NMeR]SDTL[Pen][1Nal][β3hE][NMeK]-NH2 / II: Ac-[Pen][NMeR]SDTL[Pen][1Nal][β3hE][NMeK]-NH2; disulfide I:1-I:7, II:1-II:7; linker I:10-II:10 via Diglycolyl)",50 to 100,,,
